# According to patent publication US8492521B2, “Oxidative stress responsive apoptosis inducing protein eIF5A” (priority 2008, dated 2013):
# Where a SMILES comes first, the peptide text is derived from it. The star is where a group is joined. Cbz = O=C(OCc1ccccc1)*; CH2F = FC*
# What was measured:
# cardiac myocytes [1] = test: Effect of PARP-1 inhibitor and caspase inhibitor on apoptosis of cardiac myocytes induced by recombinant eIF5A (RCP) (TUNEL); type: cell-based, rat; details: inhibitor added 1 hour before recombinant eIF5A (RCP), 3-aminobenzamide 2 mM, Z-VAD.fmk 100 μM, TUNEL at 72 hours
# [2] = system: cultured cardiac myocytes; test: Induction of apoptosis of cultured cardiac myocytes by recombinant eIF5A proteins (TUNEL / cardiac myosin double staining); type: cell-based, rat; details: recombinant protein 10 μg/mL
# [3] = Isoelectric point by two-dimensional gel electrophoresis and Western blotting; type: physicochemical; details: two-dimensional gel electrophoresis, tagged recombinant protein
# Experimental: Quail muscle cells were transfected with eIF5A-myc-His vector and myc- and His-tagged recombinant eIF5A protein was collected from the cytoplasm of the transfected cells. Similarly, quail muscle cells were trasfected with the eIF5A-FLAG-His vector, the cells were incubated in hypoxia/reoxygenation-conditioned PBS (RCP), and a FLAG- and His-tagged recombinant eIF5A protein was collected from the culture supernatant. The proteins were treated with Ni-NTA Purification System (Invitrogen), and after that gel filtration was performed with phosphate buffer containing 0.15 M NaCl (pH 7.4) using Superdex 200™ 10-300GL (GE Healthcare, 1.0×30 cm, bed capacity 24 mL) to purify the myc- and FLAG-tagged recombinant eIF5A proteins. The first dimensional isoelectric focusing was performed with Immobiline DryStrip (pH 4 to 7, GE Healthcare) which had been allowed to swell overnight with a sample dissolved in 7 M urea, 2 M thiourea, 4% CHAPS, 65 mM dithioerythritol [DTE], 2% IPG buffer pH 4 to 7 (GE Healthcare) and bromophenol blue [BPB]. The electrophoresis was performed at a voltage of 30 V for 7 hours, at 60V for 7 hours, at 60 to 200 V for 30 min, at 200 to 500 V for 30 min, at 500 to 1000 V for 30 min, at 1000 to 8000 V for 30 min, and at 8000 V for 2 hours (19.4 kVh in total). The second dimensional SDS-PAGE was performed with a gel (concentrated gel 4% acrylamide, 2.6% piperazine diacrylamide [PDA], separating gel 12% acrylamide, 2.6% PDA) and the electrophoresis was performed at 12 mA for 2 hours. The gel was transferred to a PVDF membrane, and then the myc- and FLAG-tagged recombinant eIF5A proteins were analyzed by Western blotting. First, the proteins were analyzed using anti-myc monoclonal antibody (Invitrogen), biotinylated anti-mouse IgG antibody and Vectastain ABC-AP Kit (Vector) and then detected with alkaline phosphatase and chemiluminescence. Then, the proteins were analyzed using anti-FLAG monoclonal antibody (M2, Sigma) and horseradish peroxidase (HRP)-labeled anti-mouse IgG antibody and detected with Konica Immunostain HRP-1000 Kit (Konica Corporation).
# (1) As thioredoxin has been known to act as antioxidant by reducing other proteins and play a protective role against oxidative stress-induced cell injury, eIF5A was considered to be a candidate of an apoptosis inducing humoral factor. eIF5A is the only protein known to contain a unique amino acid hypusine, which is formed post-translationally by two-steps of an enzymatic reaction. eIF5A has been known to be localized mainly in the cytoplasm under normal conditions where hypusinated eIF5A facilitates translation of mRNAs involved in cell proliferation. However, no study to date has reported that eIF5A can be released extracellularly and act as an apoptosis-inducing factor. To confirm that eIF5A is actually released from cardiac myocytes in response to hypoxia/reoxygenation and the released eIF5A can induce apoptosis of cardiac myocytes, quail muscle cells (CRL-1962, ATCC) were transfected with an expression vector containing the FLAG- and His-tagged human eIF5A gene, incubated with hypoxic PBS, and then incubated with normoxic PBS. The reoxygenation-conditioned PBS (RCP) was collected, concentrated, and purified using Ni-NTA Purification System (Invitrogen), and recombinant protein ([RCP] re-eIF5A) was extracted by gel filtration. (2) Similarly, recombinant human eIF5A ([cytosolic] re-eIF5A) was extracted from cytosolic fractions of the untreated transfected cells. (3) After these recombinant eIF5A proteins were separated by two-dimensional electrophoresis, the resultant was analyzed by Western blotting with anti-FLAG M2 mAb (Sigma) (FIG. 2b). […] Specifically, spots having higher pI values, such as hypusinated eIF5A (spots B and B′ in FIG. 2b), and spots having lower pI values, such as unhypusinated eIF5A (spots A and A′ in FIG. 2b) were identified. There was no detectable spots of deoxyhypusinated intermediate (references Taylor, C. A., et al. Exp. Cell Res. 313, 437-449). […]
# [4] = system: cultured cardiac myocytes; test: Subcellular translocation of apoptosis-inducing factor (AIF) in cultured cardiac myocytes; type: cell-based, rat; details: double staining for AIF and Hoechst 33342
# Experimental: Tyramide Signal Amplification (TSA) technology was used for fluorescence (TSA™ Biotin System, NEN Life Science Products, PerkinElmer; according to the manufacture's instruction). Cardiac myocytes were treated with a recombinant eIF5A (RCP) for a predetermined time and fixed with 4% paraformaldehyde in PBS for 15 min. The cells were washed with PBS and then incubated with rabbit anti-AIF mAb (E20; Epitomics Inc.) for 1 hour. The cells were washed, then incubated with biotinylated anti-rabbit IgG antibody (Chemicon International, Inc.) for 1 hour, washed, and incubated with streptavidin-horseradish peroxidase (Vector) for 30 min. The cells were washed in TNT buffer (0.1 M Tris-HCl, pH 7.5, 0.15 M NaCl, 0.05% Tween 20) and then incubated with biotinylated-tyramide for appropriate time (3 to 10 min). The cells were washed in TNT buffer and then incubated with FITC-labeled avidin-D (Vector) for 30 min. Nuclei were stained with 1 μg·mL^−1 Hoechst 33342 (DOJINDO Laboratories, Kumamoto, Japan). Confocal laser microscopy was performed on LSM510 Laser Scanning Microscope (Zeiss).
# [5] = system: cultured cardiac myocytes; test: Release of cytochrome c from mitochondria (Western blot of cytosolic fraction); type: cell-based, rat; details: peak at 48 hours
# Experimental: Cultured cardiac myocytes were treated with a recombinant eIF5A for a predetermined time. Nucleic, mitochondrial, and cytosolic fraction of the cells were prepared as described in Non Patent Literatures 1 and 2. Briefly, 3×10^6 cells were washed in PBS, and suspended in 250 μl of a lysis buffer (250 mM sucrose, 50 mM Pipes/KOH, pH7.4, 50 mM KCl, 5 mM EGTA, 2 mM MgCl2, 1 mM DTT, and 1 mM PMSF). After 30 min on ice, the cells were lysed with 40 strokes using pestle B in a Dounce homogenizer, and centrifuged at 80 g for 10 min. The pellets were collected as the nucleic fraction. Then, the supernatants were prepared from cell lysates by centrifugation at 20,000 g for 20 min. The pellets were collected as the mitochondrial fraction, and the supernatants were regarded as the cytosolic fraction. The nucleic, mitochondrial, and cytosolic fractions were subjected to Western blot analysis with rabbit anti-AIF mAb (E20; Epitomics Inc., CA, USA) or mouse anti-cytochrome c mAb (7H, 8.2; C12; Lab Vision Corp., CA, USA). The antibody-antigen complexes were developed with a chemiluminescence system using alkalinephosphatase (New England Biolabs, Inc.).
# [6] = system: cultured cardiac myocytes; test: Activation of caspase-3 (Western blot); type: cell-based, rat; details: peak at 48 hours
# [7] = system: cultured cardiac myocytes; test: Annexin V staining of cultured cardiac myocytes; type: cell-based, rat
# Experimental: Cardiac myocytes were treated with a recombinant eIF5A (RCP) for a predetermined time. The cells were incubated with biotinylated-annexin V in 1× binding buffer (Annexin V-Biotin Apoptosis Detection Kit, BioVision Inc.) for 5 min and then fixed with 2% paraformaldehyde in PBS for 15 min. After washing in PBS, the cells were incubated with streptavidin-horseradish peroxidase (Vector) for 30 min. The subsequent procedures for immunofluorescence by TSA technology were the same as for AIF. To distinguish cardiac myocytes from non-muscle cells, cells were further incubated with mouse anti-cardiac myosin (clone CMA19) mAb (Non Patent Literature 1), followed by incubation with tetramethyl rhodamine isothiocyanate (TRITC)-conjugated anti-mouse IgG antibody, and then photographed in a fluorescence microscope.
# cardiac myocytes [8] = test: Electron microscopy of nuclear chromatin in cardiac myocytes; type: cell-based, rat
# Experimental: The cardiac myocytes were treated with recombinant eIF5A for a predetermined period. The cells were fixed in 2% glutaraldehyde, postfixed in 2% osmium tetraoxide, dehydrated in ethanol, and embedded in a resin. Ultrathin section were prepared, stained with uranyl acetate and lead citrate, and examined with an electron microscope (H-7000, HITACHI, Japan).
# Hela cells = test: Apoptosis induction by recombinant eIF5A (TUNEL), HeLa cells; type: cell-based, human; details: 10 μg/ml, 30 to 36 hours
# Experimental: (§1) Quail muscle cells (ATCC; CRL-1962), HeLa cells, human hepatocellular carcinoma cells (ATCC; HB-8064), and human glioblastoma cells (ATCC; CRL-1690) were incubated on a culture slide (BD Falcon) until they were confluent. These cells were treated with a recombinant eIF5A (10 μg/ml) for a predetermined time and fixed. Terminal deoxynucleotidyl transferase nick-end-labeled (TUNEL) staining was performed in situ with an Apoptosis Detection Kit (Takara Bio Inc.).
# [9] = system: human hepatocellular carcinoma cells (ATCC; HB-8064); test: Apoptosis induction by recombinant eIF5A (TUNEL), hepatocellular carcinoma cells; type: cell-based; details: 10 μg/ml, 30 to 36 hours
# Experimental: as §1
# [10] = system: human glioblastoma cells (ATCC; CRL-1690); test: Apoptosis induction by recombinant eIF5A (TUNEL), glioblastoma cells; type: cell-based; details: 10 μg/ml, 30 to 36 hours
# Experimental: as §1
# [11] = system: Quail muscle cells (ATCC; CRL-1962); test: Apoptosis induction by recombinant eIF5A (TUNEL), quail muscle cells; type: cell-based; details: 10 μg/ml, normal cells, up to 72 hours
# Experimental: as §1
compound,measurement,setting,value
NC(=O)c1cccc(N)c1 [3-aminobenzamide],inhibition at 2000 µM,"cardiac myocytes [1]; Rattus norvegicus, read-out: inhibition of apoptosis induction by recombinant eIF5A (RCP)",~30%
COC(=O)C[C@H](NC(=O)[C@H](C)NC(=O)[C@@H](NC(=O)OCc1ccccc1)C(C)C)C(=O)CF [Z-VAD.fmk] (Cbz-Val-Ala-Asp(OMe)-CH2F),inhibition of apoptosis induction by recombinant eIF5A (RCP),cardiac myocytes [1],~70%
cytosolic (mostly unhypusinated) eIF5A: recombinant human eIF5A extracted from cytosolic fractions of untreated transfected cells [reference compound],induction of apoptosis of cultured cardiac myocytes (TUNEL and cardiac myosin double staining),[2],almost no cardiac myocytes underwent apoptosis
"cytosolic hypusinated eIF5A: hypusinated form of conventionally known cytosolic eIF5A, spot B in two-dimensional electrophoresis [reference compound]",isoelectric point,[3],approx. 5.5
same,isoelectric point,[3]; listed as spot B,5.5
"cytosolic unhypusinated eIF5A: unhypusinated form of conventionally known cytosolic eIF5A, spot A in two-dimensional electrophoresis [reference compound]",isoelectric point,[3],approx. 5.4
same,isoelectric point,[3]; listed as spot A,5.4
recombinant eIF5A (RCP): FLAG- and His-tagged human eIF5A collected from reoxygenation-conditioned PBS of transfected quail muscle cells; secreted form,induction of apoptosis of cultured cardiac myocytes (TUNEL and cardiac myosin double staining),[2],potently induced apoptosis
same,translocation of the apoptosis-inducing factor (AIF) from the cytosol (mitochondria) to the nucleus,[4],induced translocation
same,cytosolic fractions of cytochrome c,[5],markedly increased
same,active form of caspase-3,[6],markedly increased
same,induction of apoptosis by Annexin-V staining,[7],further confirmed
same,nuclear chromatin by electron microscopy,cardiac myocytes [8],hypercondensation of nuclear chromatins
same,induction of apoptosis (TUNEL staining),Hela cells,induced apoptosis
same,induction of apoptosis (TUNEL staining),[9],induced apoptosis
same,induction of apoptosis (TUNEL staining),[10],induced apoptosis
same,induction of apoptosis (TUNEL staining),[11],not induced until 72 hours
recombinant mutant eIF5A (K50A) derived from RCP: K50A mutant eIF5A secreted into reoxygenation-conditioned PBS by transfected quail muscle cells,induction of apoptosis of cultured cardiac myocytes (TUNEL and cardiac myosin double staining),[2],only partially induced apoptosis
"secreted hypusinated eIF5A: hypusinated form of secreted eIF5A from RCP, spot B′",isoelectric point,[3],approx. 5.4
same,isoelectric point,[3]; listed as spot B′,5.4
"secreted unhypusinated eIF5: unhypusinated form of secreted eIF5A from RCP, spot A′",isoelectric point,[3],approx. 5.3
same,isoelectric point,[3]; listed as spot A′,5.3
